{"source": "patent US10006071B2", "about": "“Methods to control secretion of metabolic byproducts in algae to enhance recovery of said byproducts” (Institute for Systems Biology, priority 2010, dated 2018)", "origin": "cited, not measured here", "key": {"Metacaspase [1]": {"tested_on": "Metacaspase"}, "metacaspase [2]": {"tested_on": "metacaspase"}}, "note": "Read-outs that look alike come from different tables or passages of the source. Residues, ends and D or L forms follow the SMILES beside them. *: point of attachment. Cbz = O=C(OCc1ccccc1)*; CH2F = FC*", "data": [{"smiles": "CC(=O)N[C@H](C(=O)N[C@@H](C)C(=O)N[C@@H](CC(=O)O)C(=O)CF)C(C)C", "note": "[Ac-VAD-FMK] (HELM PEPTIDE1{[ac].V.A.D.[FC[*:1]]}$$$$V2.0)", "values": [{"measurement": "inhibition of caspase-8", "setting": "Caspase-8", "result": "inhibited"}, {"measurement": "inhibition of caspase-3", "setting": "caspase-3", "result": "inhibit"}, {"measurement": "inhibition of caspase-6", "setting": "Caspase-6", "result": "inhibited"}, {"measurement": "inhibition of caspase-1", "setting": "Caspase-1", "result": "inhibited"}, {"measurement": "inhibition of caspase-9", "setting": "Caspase-9", "result": "inhibited"}]}, {"smiles": "CC(=O)N[C@@H](Cc1ccc(O)cc1)C(=O)N[C@@H](CCC(=O)O)C(=O)N[C@H](C(=O)N[C@@H](CC(=O)O)C(=O)CCl)C(C)C", "note": "[Ac-YEVD-CMK] (HELM PEPTIDE1{[ac].Y.E.V.D.[ClC[*:1]]}$$$$V2.0)", "values": [{"measurement": "inhibition of caspase-8", "setting": "Caspase-8", "result": "inhibited"}, {"measurement": "inhibition of caspase-3", "setting": "caspase-3", "result": "inhibit"}, {"measurement": "inhibition of caspase-6", "setting": "Caspase-6", "result": "inhibited"}, {"measurement": "inhibition of caspase-1", "setting": "Caspase-1", "result": "inhibited"}, {"measurement": "inhibition of caspase-9", "setting": "Caspase-9", "result": "inhibited"}]}, {"smiles": "CC(=O)N[C@@H](CC(=O)O)C(=O)N[C@@H](CCC(=O)O)C(=O)N[C@H](C(=O)N[C@H](C=O)CC(=O)O)C(C)C", "note": "[AcDEVD-CHO]", "values": [{"measurement": "inhibition of metacaspase", "setting": "Metacaspase [1]", "result": "inhibited"}, {"measurement": "inhibition of caspase-3", "setting": "caspase-3; Chlorella saccharophila", "result": "inhibit"}]}, {"smiles": "COC(=O)CC(NC(=O)OC(C)(C)C)C(=O)CF", "note": "[Boc D-FMK]", "values": [{"measurement": "inhibition of caspase-8", "setting": "Caspase-8", "result": "inhibited"}, {"measurement": "inhibition of caspase-3", "setting": "caspase-3", "result": "inhibit"}, {"measurement": "inhibition of caspase-6", "setting": "Caspase-6", "result": "inhibited"}, {"measurement": "inhibition of caspase-1", "setting": "Caspase-1", "result": "inhibited"}, {"measurement": "inhibition of caspase-9", "setting": "Caspase-9", "result": "inhibited"}]}, {"smiles": "O=C(O)CN(CCN(CC(=O)O)CC(=O)O)CCN(CC(=O)O)CC(=O)O", "note": "[DTPA, diethylene triamine pentaacetic acid]", "values": [{"measurement": "effect on apoptosis", "setting": "apoptosis", "result": "permits apoptosis to occur"}]}, {"smiles": "c1ccc(CN(CCN(Cc2ccccn2)Cc2ccccn2)Cc2ccccn2)nc1", "note": "[TPEN, N,N,N′,N′-tetrakis(2-pyridylmethyl)ethylenediamine]", "values": [{"measurement": "effect on apoptosis", "setting": "apoptosis", "result": "permits apoptosis to occur"}]}, {"smiles": "COC(=O)CC[C@H](NC(=O)[C@H](CC(=O)OC)NC(=O)OCc1ccccc1)C(=O)N[C@H](C(=O)N[C@@H](CC(=O)OC)C(=O)CF)C(C)C", "note": "[Z-DEVD-FMK]", "values": [{"measurement": "inhibition of metacaspase", "setting": "Metacaspase [1]", "result": "inhibited"}, {"measurement": "inhibition of metacaspase", "setting": "metacaspase [2]", "result": "inhibits"}]}, {"smiles": "[Zn+2]", "note": "[Zn^+2]", "values": [{"measurement": "inhibition of caspase-3", "setting": "caspase-3", "result": "potent inhibitor"}, {"measurement": "effect on apoptosis", "setting": "apoptosis", "result": "inhibit apoptosis"}]}, {"smiles": "COC(=O)C[C@H](NC(=O)[C@H](C)NC(=O)[C@@H](NC(=O)OCc1ccccc1)C(C)C)C(=O)CF", "note": "[zVAD-fmk] (Cbz-Val-Ala-Asp(OMe)-CH2F)", "values": [{"measurement": "inhibition of metacaspase", "setting": "Metacaspase [1]", "result": "inhibited"}]}]}
